Here are results for 19 compounds from PubChem BioAssay AID330 (DTP/NCI, 2004).

The structures appear in SMILES notation. Several values for one entry are separate records, joined by “and”; a condition that tells them apart may be missing. Equal entries are not always repeated. Toxic doses and inconclusive results are not listed.

The assay relates to P388 leukemia ip, CD2F1 mice, survival T/C. In words: NCI In Vivo Anticancer Drug Screen. Data for tumor model P388 Leukemia (intraperitoneal) in CD2F1 (CDF1) mice. The settings on record: endpoint: median survival time, higher = longer survival. The method, boiled down:
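Mice carrying the transplanted tumor received test compound or vehicle. Survival was recorded in each group, and the value is the treated-group measurement divided by that of the vehicle-treated control group.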

Setting [1] is: dose: 50.0 mg/kg/injection, schedule: Q01DX005 (ip), vehicle: saline.
Where [2] appears, read: dose: 100.0 mg/kg/injection, schedule: Q01DX005 (ip), vehicle: saline.
Setting [3] is: dose: 200.0 mg/kg/injection, schedule: Q01DX005 (ip), vehicle: saline.
The mark [4] stands for this setting: dose: 50.0 mg/kg/injection, schedule: Q01DX009 (ip), vehicle: saline.
Where [5] appears, read: dose: 100.0 mg/kg/injection, schedule: Q01DX009 (ip), vehicle: saline.
[6] abbreviates: dose: 200.0 mg/kg/injection, schedule: Q01DX009 (ip), vehicle: saline.
The mark [7] stands for this setting: dose: 25.0 mg/kg/injection, schedule: Q01DX009 (ip), vehicle: saline.
[8] abbreviates: dose: 50.0 mg/kg/injection, schedule: Q01DX005 (ip), vehicle: saline with Tween-80.
Setting [9] is: dose: 100.0 mg/kg/injection, schedule: Q01DX005 (ip), vehicle: saline with Tween-80.

Take `O=C1CCC(C(=O)N2CCCC2)N1` (centres undefined): the T/C is 96 % of control and 100 % of control under setting [1]; 104 % of control and 98 % of control under setting [2]; 104 % of control and 97 % of control under setting [3].
For `CC(O)C(=O)NC1CCCCC1` (centres undefined), the T/C runs as follows: under setting [1], 98 % of control; under setting [2], 88 % of control; under setting [3], 89 % of control.
In the case of `COc1ccc(C(=S)SCCCC(=O)O)cc1`, the T/C was 102 % of control (dose: 50.0 mg/kg/injection, schedule: Q01DX009 (ip), vehicle: Klucel (hydroxypropylcellulose) (HPC)); 98 % of control (dose: 100.0 mg/kg/injection, schedule: Q01DX009 (ip), vehicle: Klucel (hydroxypropylcellulose) (HPC)); 92 % of control (dose: 200.0 mg/kg/injection, schedule: Q01DX009 (ip), vehicle: Klucel (hydroxypropylcellulose) (HPC)).
With `COc1cc2cnc(-c3ccc(Cl)c(Cl)c3)c(O)c2cc1OC`, the T/C was 90 % of control under setting [4], 102 % of control under setting [5] and 90 % of control under setting [6].
Regarding `C#CCNC(=O)/C(C)=C(\C)c1ccc(F)cc1`, the T/C was 101 % of control (dose: 50.0 mg/kg/injection, schedule: Q04DX002 (ip), vehicle: Klucel (hydroxypropylcellulose) (HPC)); 103 % of control (dose: 100.0 mg/kg/injection, schedule: Q04DX002 (ip), vehicle: Klucel (hydroxypropylcellulose) (HPC)); 111 % of control (dose: 200.0 mg/kg/injection, schedule: Q04DX002 (ip), vehicle: Klucel (hydroxypropylcellulose) (HPC)).
As to `CN(C(=O)C(Cl)Cl)c1ccc(-c2csc(Cc3ccccc3)n2)cc1`, the T/C (dose: 100.0 mg/kg/injection, schedule: Q04DX003 (ip), vehicle: Klucel (hydroxypropylcellulose) (HPC)) was 101 % of control; the T/C (dose: 200.0 mg/kg/injection, schedule: Q04DX003 (ip), vehicle: Klucel (hydroxypropylcellulose) (HPC)) was 99 % of control; the T/C (dose: 400.0 mg/kg/injection, schedule: Q04DX003 (ip), vehicle: Klucel (hydroxypropylcellulose) (HPC)) was 97 % of control.
Take `N=C(N)SCc1cccc2c(=O)cc(-c3ccccc3)oc12`: the T/C runs as follows: under setting [7], 118 % of control; under setting [4], 86 % of control and 93 % of control; under setting [6], 113 % of control and 122 % of control.
Consider `CC[CH2][Pb]([CH2]CC)([CH2]CC)[O]C(=O)C(F)(F)F`, for which, for the setting “dose: 3.13 mg/kg/injection, schedule: Q01DX009 (ip), vehicle: saline”, the T/C is 117 % of control.
As to `CNC(=O)OCc1c(COC(=O)NC)c(-c2ccc(-c3ccccc3)cc2)n(C)c1C`, the T/C runs as follows: (dose: 2.5 mg/kg/injection, schedule: Q01DX009 (ip), vehicle: distilled water + Tween-80) 154 % of control; (dose: 5.0 mg/kg/injection, schedule: Q01DX009 (ip), vehicle: distilled water + Tween-80) 152 % of control; (dose: 10.0 mg/kg/injection, schedule: Q01DX009 (ip), vehicle: distilled water + Tween-80) 151 % of control; (dose: 15.0 mg/kg/injection, schedule: Q01DX009 (ip), vehicle: distilled water + Tween-80) 153 % of control; (dose: 20.0 mg/kg/injection, schedule: Q01DX009 (ip), vehicle: distilled water + Tween-80) 94 % of control.
`N#CC[n+]1ccccc1`: the T/C was 100 % of control (dose: 12.5 mg/kg/injection, schedule: Q01DX009 (ip), vehicle: saline); 100 % of control under setting [7]; 101 % of control under setting [4].
As to `COC(=O)CN1C(=O)c2cccc3cc([N+](=O)[O-])cc(c23)C1=O`, the T/C reads like this: (dose: 60.0 mg/kg/injection, schedule: Q01DX005 (ip), vehicle: saline with Tween-80) 100 % of control; (dose: 120.0 mg/kg/injection, schedule: Q01DX005 (ip), vehicle: saline with Tween-80) 98 % of control; (dose: 240.0 mg/kg/injection, schedule: Q01DX005 (ip), vehicle: saline with Tween-80) 90 % of control.
In the case of `O=C(Nc1ccc2[nH]c3ccccc3c2c1)c1ccccc1Cl`, the T/C is 93 % of control (dose: 50.0 mg/kg/injection, schedule: Q01DX005 (ip), vehicle: Klucel (hydroxypropylcellulose) (HPC)); 95 % of control (dose: 100.0 mg/kg/injection, schedule: Q01DX005 (ip), vehicle: Klucel (hydroxypropylcellulose) (HPC)); 90 % of control (dose: 200.0 mg/kg/injection, schedule: Q01DX005 (ip), vehicle: Klucel (hydroxypropylcellulose) (HPC)).
As for `[B-][N+](C)(C)C`, the T/C under setting [8] was 98 % of control and the T/C under setting [9] is 98 % of control.
For the compound `[Cl][Pt+2][Cl].[NH-]C1C(O)OC(CO)C(O)C1O.[NH-]C1C(O)OC(CO)C(O)C1O` (centres undefined), the T/C reads like this: (dose: 25.0 mg/kg/injection, schedule: Q04DX002 (ip), vehicle: saline) 105 % of control; (dose: 50.0 mg/kg/injection, schedule: Q04DX002 (ip), vehicle: saline) 105 % of control; (dose: 100.0 mg/kg/injection, schedule: Q04DX002 (ip), vehicle: saline) 105 % of control; (dose: 200.0 mg/kg/injection, schedule: Q04DX002 (ip), vehicle: saline) 112 % of control; (dose: 400.0 mg/kg/injection, schedule: Q04DX002 (ip), vehicle: saline) 106 % of control.
Take `CSC(=S)N/N=C(\C)c1ccccn1`: the T/C was 92 % of control under setting [4]; 92 % of control under setting [5]; 99 % of control under setting [6]; 106 % of control (dose: 400.0 mg/kg/injection, schedule: Q01DX009 (ip), vehicle: saline).
Take `OCC1OC(n2cnc3cc(Cl)c(Cl)cc32)C(O)C1O` (centres undefined): the T/C is, setting by setting: (dose: 8.0 mg/kg/injection, schedule: Q03HX024 (ip), vehicle: saline with Tween-80) 96 % of control; (dose: 16.0 mg/kg/injection, schedule: Q03HX024 (ip), vehicle: saline with Tween-80) 99 % of control; (dose: 20.0 mg/kg/injection, schedule: Q04DX003 (ip), vehicle: other) 95 % of control; (dose: 20.0 mg/kg/injection, schedule: Q04DX003 (oral), vehicle: other) 103 % of control; (dose: 25.0 mg/kg/injection, schedule: Q01DX009 (ip), vehicle: saline with Tween-80) 93 % of control; (dose: 32.0 mg/kg/injection, schedule: Q03HX024 (ip), vehicle: saline with Tween-80) 114 % of control and 116 % of control. The T/C by setting is: (dose: 40.0 mg/kg/injection, schedule: Q04DX003 (ip), vehicle: other) 100 % of control; (dose: 40.0 mg/kg/injection, schedule: Q04DX003 (oral), vehicle: other) 100 % of control; (dose: 50.0 mg/kg/injection, schedule: Q01DX009 (ip), vehicle: saline with Tween-80) 106 % of control; (dose: 80.0 mg/kg/injection, schedule: Q04DX003 (ip), vehicle: other) 95 % of control; (dose: 80.0 mg/kg/injection, schedule: Q04DX003 (oral), vehicle: other) 103 % of control; (dose: 100.0 mg/kg/injection, schedule: Q01DX009 (ip), vehicle: saline with Tween-80) 123 % of control. Moreover, the T/C is, setting by setting: (dose: 160.0 mg/kg/injection, schedule: Q04DX003 (ip), vehicle: other) 110 % of control; (dose: 160.0 mg/kg/injection, schedule: Q04DX003 (oral), vehicle: other) 100 % of control; (dose: 200.0 mg/kg/injection, schedule: Q01DX009 (ip), vehicle: saline with Tween-80) 160 % of control; (dose: 320.0 mg/kg/injection, schedule: Q04DX003 (ip), vehicle: other) 119 % of control; (dose: 320.0 mg/kg/injection, schedule: Q04DX003 (oral), vehicle: other) 107 % of control; (dose: 640.0 mg/kg/injection, schedule: Q04DX003 (oral), vehicle: other) 100 % of control.
With `CCOc1ccc(Nc2ncnc3sc4c(c23)CCCC4)cc1`, the T/C under setting [8] is 100 % of control; the T/C under setting [9] was 102 % of control; the T/C (dose: 200.0 mg/kg/injection, schedule: Q01DX005 (ip), vehicle: saline with Tween-80) is 109 % of control.
In the case of `Nc1cccnc1S(=O)(=O)O`, the T/C reads like this: under setting [4], 94 % of control; under setting [5], 98 % of control; under setting [6], 98 % of control.
`CC(C)C1(c2ccccc2)C(=O)c2ccccc2C1=O`: the T/C by setting is: (dose: 100.0 mg/kg/injection, schedule: Q04DX003 (ip), vehicle: saline) 102 % of control; (dose: 200.0 mg/kg/injection, schedule: Q04DX003 (ip), vehicle: saline) 103 % of control; (dose: 400.0 mg/kg/injection, schedule: Q04DX003 (ip), vehicle: saline) 105 % of control.
